Data taken from US6340679B1, “Guanidine derivatives as inhibitors of cell adhesion” (Aventis Pharma Deutschland GmbH, priority 1999, dated 2002).

Legend:
[1] = molecular target: T1, human vitronectin receptor αvβ3 (Homo sapiens, UniProt P05106+P06756); assay: Inhibition of the binding of kistrin to human vitronectin receptor (αvβ3 ELISA Test, K/VnR)
T1 construct: Human vitronectin receptor was obtained from the human placenta; from tissue; host or cells: human placenta
Excerpt: The inhibition of the binding of kistrin to human vitronectin receptor (VnR) described below is a test method by which, for example, the antagonistic action of the compounds according to the invention on the vitronectin receptor αvβ3 can be determined (αvβ3 ELISA Test; the test method is abbreviated as “K/VnR” in the listing of the test results).
Kistrin was purified according to the methods of Dennis et al., as described in Proc. Natl. Acad. Sci. USA 87 (1989) 2471-2475 and PROTEINS: Structure, Function and Genetics 15 (1993) 312-321.
Human vitronectin receptor was obtained from the human placenta according to the method of Pytela et al., Methods Enzymol. 144 (1987) 475. Human vitronectin receptor αvβ3 can also be obtained from some cell lines (for example from 293 cells, a human embryonic kidney cell line) which are co-transfected with DNA sequences for both subunits αv and β3 of the vitronectin receptor. The subunits are extracted with octyl glycoside and then chromatographed through concanavalin A, heparin-Sepharose and S-300.
Murine monoclonal antibodies which are specific for the β3 subunits of the vitronectin receptor were prepared according to the method of Newman et al., Blood (1985) 227-232, or by a similar process. The rabbit Fab 2 anti-mouse Fc conjugate to horseradish peroxidase (anti-mouse Fc HRP) was obtained from Pel Freeze (Catalog No. 715 305-1).
The ability of substances to inhibit the binding of kistrin to the vitronectin receptor can be determined using an ELISA test. For this purpose, Nunc 96-well microtiter plates were coated with a solution of kistrin (0.002 mg/ml) according to the method of Dennis et al., as described in PROTEINS: Structure, Function and Genetics 15 (1993) 312-321. The plates were then washed twice with PBS/0.05% Tween-20 and blocked by incubating (60 min) with bovine serum albumin (BSA, 0.5%, RIA grade or better) in buffer solution (Tris-HCl (50 mM), NaCl (100 mM), MgCl2 (1 mM), CaCl2 (1 mM), MnCl2 (1 mM), pH 7). Solutions of known inhibitors and of the test substances were prepared in concentrations from 2×10^−12 to 2×10^−6 mol/l in assay buffer (BSA (0.5%, RIA grade or better); Tris-HCl (50 mM), NaCl (100 mM), MgCl2 (1 mM), CaCl2 (1 mM), MnCl2 (1 mM), pH 7). The blocked plates were emptied, and in each case 0.025 ml of this solution which contained a defined concentration (2×10^−12 to 2×10^−6 mol/l ) either of a known inhibitor or of a test substance, were added to each well. 0.025 ml of a solution of the vitronectin receptor in assay buffer (0.03 mg/ml) was pipetted into each well of the plate and the plate was incubated at room temperature for 60-180 min on a shaker. In the meantime, a solution (6 ml/plate) of a murine monoclonal antibody specific for the β3 subunit of the vitronectin receptor was prepared in assay buffer (0.0015 mg/ml). A second rabbit antibody (0.001 ml of stock solution/6 ml of the murine monoclonal anti-β3 antibody solution) which was an anti-mouse Fc HRP antibody conjugate was added to this solution, and this mixture of murine anti-β3 antibody and rabbit anti-mouse Fc HRP antibody conjugate was incubated during the time of the receptor-inhibitor incubation. The test plates were washed four times with PBS solution which contained 0.05% Tween-20, and in each case 0.05 ml/well of the antibody mixture was pipetted into each well of the plate and incubated for 60-180 min. The plate was washed four times with PBS/0.05% Tween-20 and then developed with 0.05 ml/well of a PBS solution which contained 0.67 mg/ml of o-phenylenediamine and 0.012% of H2O2. Alternatively to this, o-phenylenediamine can be employed in a buffer (pH 5) which contains Na3PO4 and citric acid. The color development was stopped using 1 N H2SO4 (0.05 ml/well). The absorption for each well was measured at 492-405 nm and the data were evaluated by standard methods.

[2] = molecular target: GP IIb/IIIa (Homo sapiens, UniProt P05106+P08514); assay: Fibrinogen-GP IIbIIIa Receptor ELISA Binding Assay (GP IIb/IIIa); conditions: read-out: GP IIb/IIla IC50
Method: The test for inhibition of GP IIb/IIIa (“Fibrinogen-GP IIbIIIa Receptor ELISA Binding Assay”) was carried out as described in U.S. Pat. No. 5,403,836 which is incorporated herein by reference (the test method is abbreviated as “GP IIb/IIa” in the listing of the test results).

T1 sequence (P06756 31-889 limits assumed): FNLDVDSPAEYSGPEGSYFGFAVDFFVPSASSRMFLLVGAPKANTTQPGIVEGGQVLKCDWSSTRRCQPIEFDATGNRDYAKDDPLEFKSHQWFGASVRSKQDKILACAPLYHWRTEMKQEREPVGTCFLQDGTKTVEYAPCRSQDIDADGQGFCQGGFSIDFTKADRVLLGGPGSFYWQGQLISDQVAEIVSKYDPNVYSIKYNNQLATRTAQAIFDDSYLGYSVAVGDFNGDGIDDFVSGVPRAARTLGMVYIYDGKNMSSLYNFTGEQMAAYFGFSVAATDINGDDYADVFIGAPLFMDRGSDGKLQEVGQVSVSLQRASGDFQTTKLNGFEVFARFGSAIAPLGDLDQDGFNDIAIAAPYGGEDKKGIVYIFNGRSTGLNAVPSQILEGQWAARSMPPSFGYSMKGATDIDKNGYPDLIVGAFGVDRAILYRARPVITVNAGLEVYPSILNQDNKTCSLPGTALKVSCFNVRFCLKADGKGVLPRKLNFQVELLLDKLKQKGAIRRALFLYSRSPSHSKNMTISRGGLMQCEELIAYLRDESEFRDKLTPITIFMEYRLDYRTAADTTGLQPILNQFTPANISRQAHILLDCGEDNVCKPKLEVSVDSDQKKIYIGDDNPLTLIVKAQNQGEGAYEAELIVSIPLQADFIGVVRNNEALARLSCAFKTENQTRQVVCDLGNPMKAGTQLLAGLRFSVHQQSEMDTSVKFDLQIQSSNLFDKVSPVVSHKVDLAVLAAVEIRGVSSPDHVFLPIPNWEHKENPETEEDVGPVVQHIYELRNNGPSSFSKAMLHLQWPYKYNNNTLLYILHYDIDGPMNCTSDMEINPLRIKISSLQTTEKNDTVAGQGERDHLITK
T1 sequence (P06756 891-1048 partner limits assumed): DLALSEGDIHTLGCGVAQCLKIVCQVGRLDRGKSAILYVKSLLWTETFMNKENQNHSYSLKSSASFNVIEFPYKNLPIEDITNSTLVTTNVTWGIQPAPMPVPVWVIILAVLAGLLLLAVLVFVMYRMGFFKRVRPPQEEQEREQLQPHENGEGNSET
T1 sequence (P05106 27-788): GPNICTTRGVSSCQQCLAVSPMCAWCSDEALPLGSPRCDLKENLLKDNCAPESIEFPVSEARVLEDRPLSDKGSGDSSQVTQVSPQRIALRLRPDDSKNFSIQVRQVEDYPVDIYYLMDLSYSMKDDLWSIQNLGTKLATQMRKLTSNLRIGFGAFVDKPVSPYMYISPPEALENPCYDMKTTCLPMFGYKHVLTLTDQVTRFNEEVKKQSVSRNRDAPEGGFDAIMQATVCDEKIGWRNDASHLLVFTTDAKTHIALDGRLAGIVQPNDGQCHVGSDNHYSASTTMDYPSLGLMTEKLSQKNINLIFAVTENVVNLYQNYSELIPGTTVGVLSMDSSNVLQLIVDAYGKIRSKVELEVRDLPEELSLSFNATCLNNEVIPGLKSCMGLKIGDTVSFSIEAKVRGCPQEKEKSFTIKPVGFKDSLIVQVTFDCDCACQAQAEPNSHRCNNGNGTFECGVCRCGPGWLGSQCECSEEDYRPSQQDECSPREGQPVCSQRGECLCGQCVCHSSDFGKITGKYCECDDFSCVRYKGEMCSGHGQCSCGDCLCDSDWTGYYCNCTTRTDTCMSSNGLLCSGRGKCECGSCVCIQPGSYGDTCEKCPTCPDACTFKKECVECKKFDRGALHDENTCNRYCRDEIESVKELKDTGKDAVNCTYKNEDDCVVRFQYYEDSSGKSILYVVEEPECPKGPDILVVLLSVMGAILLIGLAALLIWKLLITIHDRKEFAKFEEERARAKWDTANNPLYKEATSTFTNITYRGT
Sequence of GP IIb/IIIa (P08514 32-887 limits assumed): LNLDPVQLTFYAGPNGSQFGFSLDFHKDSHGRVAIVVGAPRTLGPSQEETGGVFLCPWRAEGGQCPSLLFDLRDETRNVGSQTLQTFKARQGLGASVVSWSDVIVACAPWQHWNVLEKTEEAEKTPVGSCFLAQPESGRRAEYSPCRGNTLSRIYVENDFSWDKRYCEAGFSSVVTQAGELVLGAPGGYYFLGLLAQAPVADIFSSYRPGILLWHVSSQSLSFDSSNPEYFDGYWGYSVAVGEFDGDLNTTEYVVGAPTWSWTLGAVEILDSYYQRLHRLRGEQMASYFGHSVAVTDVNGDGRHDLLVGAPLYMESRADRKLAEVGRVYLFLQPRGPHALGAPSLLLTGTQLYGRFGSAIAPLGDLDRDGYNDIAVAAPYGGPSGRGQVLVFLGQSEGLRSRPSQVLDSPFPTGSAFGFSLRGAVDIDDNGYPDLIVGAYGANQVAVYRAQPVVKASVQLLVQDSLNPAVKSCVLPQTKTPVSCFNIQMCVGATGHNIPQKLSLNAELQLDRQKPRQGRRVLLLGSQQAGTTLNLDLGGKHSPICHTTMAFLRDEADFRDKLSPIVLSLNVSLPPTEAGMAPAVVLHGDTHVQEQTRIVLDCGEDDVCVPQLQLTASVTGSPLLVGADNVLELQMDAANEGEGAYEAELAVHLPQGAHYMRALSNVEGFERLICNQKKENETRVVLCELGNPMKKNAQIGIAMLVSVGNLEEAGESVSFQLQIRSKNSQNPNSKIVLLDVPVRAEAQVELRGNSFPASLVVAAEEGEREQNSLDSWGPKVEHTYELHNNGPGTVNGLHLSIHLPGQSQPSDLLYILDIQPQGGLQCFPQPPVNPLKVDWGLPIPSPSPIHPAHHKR
Sequence of GP IIb/IIIa (P08514 891-1039 partner limits assumed): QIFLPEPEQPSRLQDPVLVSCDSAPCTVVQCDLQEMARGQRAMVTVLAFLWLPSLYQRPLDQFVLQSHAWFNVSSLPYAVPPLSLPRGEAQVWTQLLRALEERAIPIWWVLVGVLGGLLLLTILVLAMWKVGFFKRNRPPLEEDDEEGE
Sequence of GP IIb/IIIa (P05106 27-788): as the sequence (P05106 27-788) above

IC50 [1] [µM] | IC50 [2] [µM] | SMILES
0.0028 | 0.72 | Cc1ccc(S(=O)(=O)N[C@@H](Cc2ccc(OCCCC(=O)NC3=NCCCN3)cc2)C(=O)O)cc1 [Example 6, (2S)-3-{4-[3-(1,4,5,6-Tetrahydropyrimidin-2-ylcarbamoyl)-propoxy]-phenyl}-2-(toluene4-sulfonylamino)-propionic acid]
0.0053 | 2.1 | CCCCS(=O)(=O)N[C@@H](Cc1ccc(OCCCC(=O)NC2=NCCCN2)cc1)C(=O)O [Example 9, (2S)-2-(Butane-1-sulfonylamino)-3-{4-[3-(1,4,5,6-tetrahydropyrimidin-2-ylcarbamoyl)-propoxy]-phenyl}-propionic acid]
0.0076 | 2.4 | CCCCCCCCS(=O)(=O)N[C@@H](Cc1ccc(OCCCC(=O)NC2=NCCCN2)cc1)C(=O)O [Example 10, (2S)-2-(Octane-1-sulfonylamino)-3-{4-[3-(1,4,5,6-tetrahydropyrimidin-2-ylcarbamoyl)-propoxy]-phenyl}-propionic acid]
0.0035 | 3.15 | O=C(CCCOc1ccc(C[C@H](NS(=O)(=O)c2ccc(C(F)(F)F)cc2)C(=O)O)cc1)NC1=NCCCN1 [Example 5, (2S)-3-{4-[3-(1,4,5,6-Tetrahydropyrimidin-2-ylcarbamoyl)-propoxy]-phenyl}-2-(4-trifluoromethylbenzenesulfonylamino)-propionic acid]
0.0027 | 0.525 | O=C(CCCOc1ccc(C[C@H](NS(=O)(=O)c2cccc3ccccc23)C(=O)O)cc1)NC1=NCCCN1 [Example 2, (2S)-2-(Naphthalene-1-sulfonylamino)-3-{4-[3-(1,4,5,6-tetrahydropyrimidin-2-ylcarbamoyl)-propoxy]-phenyl}-propionic acid]
0.0025 | 0.33 | O=C(CCCOc1ccc(C[C@H](NS(=O)(=O)c2cccs2)C(=O)O)cc1)NC1=NCCCN1 [Example 8, (2S)-3-{4-[3-(1,4,5,6-Tetrahydropyrimidin-2-ylcarbamoyl)-propoxy]-phenyl}-2-(thiophene-2-sulfonylamino)-propionic acid]
0.0035 | 0.95 | O=C(CCCOc1ccc(C[C@H](NS(=O)(=O)c2ccc(Br)cc2)C(=O)O)cc1)NC1=NCCCN1 [Example 7, (2S)-2-(4-Bromobenzenesulfonylamino)-3-{4-[3-(1,4,5,6-tetrahydropyrimidin-2-ylcarbamoyl)-propoxy]-phenyl}-propionic acid]
0.0028 | 0.41 | O=C(CCCOc1ccc(C[C@H](NS(=O)(=O)c2ccccc2)C(=O)O)cc1)NC1=NCCCN1 [Example 4, (2S)-2-Benzenesulfonylamino-3-{4-[3-(1,4,5,6-tetrahydropyrimidin-2-ylcarbamoyl)-propoxy]-phenyl}-propionic acid]
0.003 | 0.765 | O=C(CCCOc1ccc(C[C@H](NS(=O)(=O)c2ccc(Cl)cc2)C(=O)O)cc1)NC1=NCCCN1 [Example 3, (2S)-2-(4-Chlorobenzenesulfonylamino)-3-{4-[3-(1,4,5,6-tetrahydropyrimidin-2-ylcarbamoyl)-propoxy]-phenyl}-propionic acid]
0.0075 | 0.26 | O=C(CCCOc1ccc(C[C@H](NS(=O)(=O)c2ccc3ccccc3c2)C(=O)O)cc1)NC1=NCCCN1 [Example 1, (2S)-2-(Naphthalene-2-sulfonylamino)-3-{4-[3-(1,4,5,6-tetrahydropyrimidin-2-ylcarbamoyl)-propoxy]-phenyl}-propionic acid]
